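Compound exposure: 48 hours, 5 concentrations, 96-well plates. GI50: concentration for 50% inhibition of growth. TGI is the concentration that stops growth completely.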
Tests used:
Assay in all cases: growth of human tumour cells (NCI), 48 h
NCI-H460 lung = test system: NCI-H460 lung
SK-OV-3 ovarian = test system: SK-OV-3 ovarian
SF-539 CNS = test system: SF-539 CNS
SN12C renal = test system: SN12C renal
IGROV1 ovarian = test system: IGROV1 ovarian
MCF7 breast = test system: MCF7 breast
MDA-MB-435 = test system: MDA-MB-435
SNB-19 CNS = test system: SNB-19 CNS
UO-31 renal = test system: UO-31 renal
M14 melanoma = test system: M14 melanoma
RXF 393 renal = test system: RXF 393 renal
A498 renal = test system: A498 renal
HT29 colon = test system: HT29 colon
NCI/ADR-RES ovarian = test system: NCI/ADR-RES ovarian
SK-MEL-2 melanoma = test system: SK-MEL-2 melanoma
MOLT-4 leukemia = test system: MOLT-4 leukemia
UACC-62 melanoma = test system: UACC-62 melanoma
SNB-75 CNS = test system: SNB-75 CNS
SF-268 CNS = test system: SF-268 CNS
HOP-62 NSCLC = test system: HOP-62 NSCLC
HS 578T breast = test system: HS 578T breast
OVCAR-4 ovarian = test system: OVCAR-4 ovarian
LOX IMVI melanoma = test system: LOX IMVI melanoma
HOP-92 NSCLC = test system: HOP-92 NSCLC
SF-295 CNS = test system: SF-295 CNS
HCC-2998 colon = test system: HCC-2998 colon
NCI-H23 lung = test system: NCI-H23 lung
HL-60(TB) leukemia = test system: HL-60(TB) leukemia
UACC-257 melanoma = test system: UACC-257 melanoma
MALME-3M melanoma = test system: MALME-3M melanoma
DU-145 prostate = test system: DU-145 prostate
ACHN renal = test system: ACHN renal
OVCAR-8 ovarian = test system: OVCAR-8 ovarian
HCT-116 colon = test system: HCT-116 colon
SK-MEL-28 melanoma = test system: SK-MEL-28 melanoma
OVCAR-5 ovarian = test system: OVCAR-5 ovarian
RPMI-8226 leukemia = test system: RPMI-8226 leukemia
COLO 205 colon = test system: COLO 205 colon
NCI-H522 lung = test system: NCI-H522 lung
A549 NSCLC = test system: A549 NSCLC
SR leukemia = test system: SR leukemia
KM12 colon = test system: KM12 colon
786-0 renal = test system: 786-0 renal
CCRF-CEM leukemia = test system: CCRF-CEM leukemia
OVCAR-3 ovarian = test system: OVCAR-3 ovarian
TK-10 renal = test system: TK-10 renal
K-562 leukemia = test system: K-562 leukemia
NCI-H226 lung = test system: NCI-H226 lung
PC-3 prostate = test system: PC-3 prostate
CAKI-1 renal = test system: CAKI-1 renal
SK-MEL-5 melanoma = test system: SK-MEL-5 melanoma
T-47D breast = test system: T-47D breast
U251 CNS = test system: U251 CNS
HCT-15 colon = test system: HCT-15 colon
SW-620 colon = test system: SW-620 colon
MDA-MB-231 breast = test system: MDA-MB-231 breast
BT-549 breast = test system: BT-549 breast

SMILES: O=C(c1ccc(F)c(F)c1Nc1ccc(I)cc1F)N1CC(O)([C@H]2CCCCN2)C1
- GI50 (NCI-H460 lung): 4.19 µM
- TGI (NCI-H460 lung): 20.2 µM
- GI50 (SK-OV-3 ovarian): 8.15 µM
- TGI (SK-OV-3 ovarian): 21.1 µM
- GI50 (SF-539 CNS): 10.2 µM
- TGI (SF-539 CNS): 22.8 µM
- GI50 (SN12C renal): 3.96 µM
- TGI (SN12C renal): 19.7 µM
- GI50 (IGROV1 ovarian): 1.43 µM
- TGI (IGROV1 ovarian): 13.9 µM
- GI50 (MCF7 breast): 6.56 µM
- TGI (MCF7 breast): 21.3 µM
- GI50 (MDA-MB-435): 0.161 µM
- TGI (MDA-MB-435): 15.8 µM
- GI50 (SNB-19 CNS): 8.08 µM
- TGI (SNB-19 CNS): 22.8 µM
- GI50 (UO-31 renal): 1.42 µM
- TGI (UO-31 renal): 13.9 µM
- GI50 (M14 melanoma): 0.087 µM
- TGI (M14 melanoma): 2.52 µM
- GI50 (RXF 393 renal): 2.08 µM
- TGI (RXF 393 renal): 8.76 µM
- GI50 (A498 renal): 1.11 µM
- TGI (A498 renal): 3.31 µM
- GI50 (HT29 colon): 0.0894 µM
- TGI (HT29 colon): 10.9 µM
- GI50 (NCI/ADR-RES ovarian): 8.74 µM
- TGI (NCI/ADR-RES ovarian): 23 µM
- GI50 (SK-MEL-2 melanoma): 0.135 µM
- TGI (SK-MEL-2 melanoma): 0.702 µM
- GI50 (MOLT-4 leukemia): 8.46 µM
- TGI (MOLT-4 leukemia): 23.3 µM
- GI50 (UACC-62 melanoma): 0.097 µM
- TGI (UACC-62 melanoma): 2.92 µM
- GI50 (SNB-75 CNS): 5.96 µM
- TGI (SNB-75 CNS): 20.5 µM
- GI50 (SF-268 CNS): 9.83 µM
- TGI (SF-268 CNS): 23.4 µM
- GI50 (HOP-62 NSCLC): 1.97 µM
- TGI (HOP-62 NSCLC): 17.3 µM
- GI50 (HS 578T breast): 9.74 µM
- TGI (HS 578T breast): 33.7 µM
- GI50 (OVCAR-4 ovarian): 3.81 µM
- TGI (OVCAR-4 ovarian): 17.7 µM
- GI50 (LOX IMVI melanoma): 1.05 µM
- TGI (LOX IMVI melanoma): 5.49 µM
- GI50 (HOP-92 NSCLC): 0.406 µM
- TGI (HOP-92 NSCLC): 2.77 µM
- GI50 (SF-295 CNS): 14.5 µM
- TGI (SF-295 CNS): 28.9 µM
- GI50 (HCC-2998 colon): 0.223 µM
- TGI (HCC-2998 colon): 2.62 µM
- GI50 (NCI-H23 lung): 1.09 µM
- TGI (NCI-H23 lung): 13.1 µM
- GI50 (HL-60(TB) leukemia): 0.173 µM
- TGI (HL-60(TB) leukemia): 5.71 µM
- GI50 (UACC-257 melanoma): 0.08 µM
- TGI (UACC-257 melanoma): 0.472 µM
- GI50 (MALME-3M melanoma): 0.019 µM
- TGI (MALME-3M melanoma): 0.0976 µM
- GI50 (DU-145 prostate): 9.76 µM
- TGI (DU-145 prostate): 22.3 µM
- GI50 (ACHN renal): 1.86 µM
- TGI (ACHN renal): 15.8 µM
- GI50 (OVCAR-8 ovarian): 12 µM
- TGI (OVCAR-8 ovarian): 26.9 µM
- GI50 (HCT-116 colon): 0.649 µM
- TGI (HCT-116 colon): 11.7 µM
- GI50 (SK-MEL-28 melanoma): 0.0953 µM
- TGI (SK-MEL-28 melanoma): 3.45 µM
- GI50 (OVCAR-5 ovarian): 0.914 µM
- TGI (OVCAR-5 ovarian): 15.5 µM
- GI50 (RPMI-8226 leukemia): 4.03 µM
- TGI (RPMI-8226 leukemia): 20.8 µM
- GI50 (COLO 205 colon): 0.0735 µM
- TGI (COLO 205 colon): 4.1 µM
- GI50 (NCI-H522 lung): 8.01 µM
- TGI (NCI-H522 lung): 22.9 µM
- GI50 (A549 NSCLC): 2.37 µM
- TGI (A549 NSCLC): 18 µM
- GI50 (SR leukemia): 3.94 µM
- TGI (SR leukemia): 17.8 µM
- GI50 (KM12 colon): 1.12 µM
- TGI (KM12 colon): 14 µM
- GI50 (786-0 renal): 7.72 µM
- TGI (786-0 renal): 21.7 µM
- GI50 (CCRF-CEM leukemia): 12.5 µM
- TGI (CCRF-CEM leukemia): 29.4 µM
- GI50 (OVCAR-3 ovarian): 12.1 µM
- TGI (OVCAR-3 ovarian): 25.2 µM
- GI50 (TK-10 renal): 1.4 µM
- TGI (TK-10 renal): 15.3 µM
- GI50 (K-562 leukemia): 3.53 µM
- TGI (K-562 leukemia): 13.5 µM
- GI50 (NCI-H226 lung): 4.8 µM
- TGI (NCI-H226 lung): 22.8 µM
- GI50 (PC-3 prostate): 9.68 µM
- TGI (PC-3 prostate): 22.3 µM
- GI50 (CAKI-1 renal): 6.28 µM
- TGI (CAKI-1 renal): 20.3 µM
- GI50 (SK-MEL-5 melanoma): 0.668 µM
- TGI (SK-MEL-5 melanoma): 6.06 µM
- GI50 (T-47D breast): 11.6 µM
- TGI (T-47D breast): 26 µM
- GI50 (U251 CNS): 3.5 µM
- TGI (U251 CNS): 18.9 µM
- GI50 (HCT-15 colon): 4.81 µM
- TGI (HCT-15 colon): 19.3 µM
- GI50 (SW-620 colon): 0.34 µM
- TGI (SW-620 colon): 15 µM
- GI50 (MDA-MB-231 breast): 0.579 µM
- TGI (MDA-MB-231 breast): 5.26 µM
- GI50 (BT-549 breast): 10.9 µM
- TGI (BT-549 breast): 23.9 µM
